Data taken from patent US11505528B2, “Inhibitors of microbially induced amyloid” (Axial Therapeutics, Inc., priority 2017, dated 2022).
Like-named read-outs stand apart in the source and are kept apart here.

Key:
Assay type in all cases: biochemical
[1] = target: T1, human α-synuclein (Homo sapiens, UniProt P37840); assay: Thioflavin T cell-free assay of α-synuclein aggregation; settings: α-synuclein 50 μM, compounds at 20-50 μM, data from 36 hours; for Inhibition of Aggregation, αSyn: ThT fluorescence, negative = potentiation
T1 construct: the full-length gene for untagged human α-synuclein was inserted; made in house; host or cells: E. coli BL21 (DE3)

[2] = target: T2, α-synuclein seeded by E. coli CsgA (Homo sapiens, UniProt P37840); assay: Thioflavin T cell-free assay of CsgA-seeded α-synuclein aggregation
T2 construct: the full-length gene for untagged human α-synuclein was inserted; made in house; host or cells: α-synuclein: E. coli BL21 (DE3); CsgA: E. coli NEB 3016 slyD::kan

[3] = target: T3, E. coli CsgA (Escherichia coli, UniProt P28307); assay: Thioflavin T cell-free assay of CsgA aggregation
T3 construct: 6xHis (C); made in house; host or cells: E. coli NEB 3016 slyD::kan

[4] = read-out: Inhibition of Aggregation, CsgA-seeded αSyn
[5] = read-out: Inhibition of Aggregation, CsgA-seeded αSyn (compound activity range)
[6] = read-out: Inhibition of Aggregation, CsgA
[7] = read-out: Inhibition of Aggregation, CsgA (compound activity range)

T3 sequence (P28307 23-151): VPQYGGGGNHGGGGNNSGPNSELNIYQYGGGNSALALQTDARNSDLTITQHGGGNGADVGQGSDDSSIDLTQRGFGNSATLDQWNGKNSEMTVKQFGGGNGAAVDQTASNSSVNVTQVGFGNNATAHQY

| SMILES | Inhibition of Aggregation, αSyn [1] [%] | Inhibition of Aggregation, αSyn (compound activity range) [1] | inhibition at 50 µM [2, 4] [%] | inhibition at 50 µM [2, 5] [%] | inhibition at 20 µM [3, 6] [%] | inhibition at 20 µM [3, 7] [%] |
| --- | --- | --- | --- | --- | --- | --- |
| COc1cc(NC(=O)c2c[nH]c3cc(OC)c(OC)c(OC)c3c2=O)cc(OC)c1OC [Compound 19, 5,6,7-trimethoxy-4-oxo-N-(3,4,5-trimethoxyphenyl)-1,4-dihydroquinoline-3-carboxamide] | 29 | (+) ((+) is between 10% to 30% inhibition) | 14 | 10 to 30 | 18 | 10 to 30 |
| COc1cc(OC)c2c(=O)c(C(=O)Nc3ccccc3)c[nH]c2c1 [Compound 25, 5,7-dimethoxy-4-oxo-N-phenyl-1,4-dihydroquinoline-3-carboxamide] | 17 | (+) ((+) is between 10% to 30% inhibition) |  |  | -150 | < -10 |
| O=C(Nc1sc2c(c1C(=O)Nc1cc(O)cc(O)c1)CCCC2)c1cc(O)c(O)c(O)c1 [Compound 6, N-(3,5-dihydroxyphenyl)-2-(3,4,5-trihydroxybenzamido)-4,5,6,7-tetrahydrobenzo[b]thiophene-3-carboxamide] | 36 | (++) ((++) is between 30% to 60% inhibition) | > 90 | > 60 | 40 | 30 to 60 |
| O=C(Nc1sc2c(c1C(=O)Nc1ccccc1)CCCC2)c1cc(O)c(O)c(O)c1 [Compound 8, N-phenyl-2-(3,4,5-trihydroxybenzamido)-4,5,6,7-tetrahydrobenzo[b]thiophene-3-carboxamide] | 18 | (+) ((+) is between 10% to 30% inhibition) |  |  | 13 | 10 to 30 |
| O=C(Nc1cc(O)c(O)c(O)c1)c1c(-c2cc(O)c(O)c(O)c2)[nH]c2cc(O)c(O)c(O)c2c1=O [Compound 44, 5,6,7-trihydroxy-4-oxo-N,2-bis(3,4,5-trihydroxyphenyl)-1,4-dihydroquinoline-3-carboxamide] | 98 | (+++) ((+++) is greater than 60% inhibition) | > 90 | > 60 | 64 | > 60 |
| O=C(Nc1ccccc1)c1c[nH]c2cc(O)c(O)c(O)c2c1=O [Compound 33, 5,6,7-trihydroxy-4-oxo-N-phenyl-1,4-dihydroquinoline-3-carboxamide] | 92 | (+++) ((+++) is greater than 60% inhibition) |  |  | 59 | 30 to 60 |
| O=C(Nc1ccccc1)c1c[nH]c2cc(O)cc(O)c2c1=O [Compound 27, 5,7-dihydroxy-4-oxo-N-phenyl-1,4-dihydroquinoline-3-carboxamide] | 49 | (++) ((++) is between 30% to 60% inhibition) | 79 | > 60 | 44 | 30 to 60 |
| O=C(Nc1ccc(O)cc1)c1c[nH]c2cc(O)c(O)c(O)c2c1=O [Compound 38, 5,6,7-trihydroxy-N-(4-hydroxyphenyl)-4-oxo-1,4-dihydroquinoline-3-carboxamide] | 14 | (+) ((+) is between 10% to 30% inhibition) |  |  |  |  |
| O=C(Nc1cccc(O)c1)c1c[nH]c2cc(O)cc(O)c2c1=O [Compound 48, 5,7-dihydroxy-N-(3-hydroxyphenyl)-4-oxo-1,4-dihydroquinoline-3-carboxamide] | 37 | (++) ((++) is between 30% to 60% inhibition) | > 90 | > 60 | -2 | -10 to 10 |
| COc1cc(OC)c2c(=O)c(C(=O)Nc3cccc(O)c3)c[nH]c2c1 [Compound 26, N-(3-hydroxyphenyl)-5,7-dimethoxy-4-oxo-1,4-dihydroquinoline-3-carboxamide] | 24 | (+) ((+) is between 10% to 30% inhibition) | < -50 | < -10 | 8 | -10 to 10 |
| COc1cc2[nH]cc(C(=O)Nc3cccc(O)c3)c(=O)c2c(OC)c1OC [Compound 28, N-(3-hydroxyphenyl)-5,6,7-trimethoxy-4-oxo-1,4-dihydroquinoline-3-carboxamide] | 20 | (+) ((+) is between 10% to 30% inhibition) | < -50 | < -10 | -6 | -10 to 10 |
| O=C(Nc1cc(O)c(O)c(O)c1)c1c[nH]c2cc(O)c(O)c(O)c2c1=O [Compound 20, 5,6,7-trihydroxy-4-oxo-N-(3,4,5-trihydroxyphenyl)-1,4-dihydroquinoline-3-carboxamide] |  |  | 11 | 10 to 30 | 61 | > 60 |
| COc1cc(OC)c2c(=O)c(C(=O)Nc3cc(OC)c(OC)c(OC)c3)c[nH]c2c1 [Compound 21, 5,7-dimethoxy-4-oxo-N-(3,4,5-trimethoxyphenyl)-1,4-dihydroquinoline-3-carboxamide] | −1 | (−) ((−) is between −10% to 10% inhibition) |  |  | 4 | -10 to 10 |
| O=C(Nc1ccccc1O)c1c[nH]c2cc(O)c(O)c(O)c2c1=O [Compound 43, 5,6,7-trihydroxy-N-(2-hydroxyphenyl)-4-oxo-1,4-dihydroquinoline-3-carboxamide] | 63 | (++) ((++) is between 30% to 60% inhibition) |  |  | 90 | > 60 |
| COc1cc(OC(=O)c2c[nH]c3cc(OC)c(OC)c(OC)c3c2=O)cc(OC)c1OC [Compound 23, 3,4,5-trimethoxyphenyl 5,6,7-trimethoxy-4-oxo-1,4-dihydroquinoline-3-carboxylate] |  |  | -22 | < -10 | -4 | -10 to 10 |
| O=C(Nc1sc2c(c1C(=O)Nc1cc(O)c(O)c(O)c1)CCCC2)c1cc(O)c(O)c(O)c1 [Compound 2, 2-(3,4,5-trihydroxybenzamido)-N-(3,4,5-trihydroxyphenyl)-4,5,6,7-tetrahydrobenzo[b]thiophene-3-carboxamide] | 93 | (+++) ((+++) is greater than 60% inhibition) | 63 | > 60 | 45 | 30 to 60 |
| COc1cc(NC(=O)c2c(N)sc3c2CCCC3)cc(OC)c1OC [Compound 14, 2-amino-N-(3,4,5-trimethoxyphenyl)-4,5,6,7-tetrahydrobenzo[b]thiophene-3-carboxamide] | 3 | (−) ((−) is between −10% to 10% inhibition) | 74 | > 60 |  |  |
| COc1cc(OC)c2c(=O)c(C(=O)Oc3cc(OC)c(OC)c(OC)c3)c[nH]c2c1 [Compound 24, 3,4,5-trimethoxyphenyl 5,7-dimethoxy-4-oxo-1,4-dihydroquinoline-3-carboxylate] |  |  | -27 | < -10 | -1 | -10 to 10 |
| COc1cc(OC)c2c(=O)c(C(=O)Nc3ccccc3O)c[nH]c2c1 [Compound 41, N-(2-hydroxyphenyl)-5,7-dimethoxy-4-oxo-1,4-dihydroquinoline-3-carboxamide] | 17 | (+) ((+) is between 10% to 30% inhibition) |  |  | 18 | 10 to 30 |
| CN(C(=O)c1c[nH]c2cc(O)cc(O)c2c1=O)c1cc(O)c(O)c(O)c1 [Compound 42, 5,7-dihydroxy-N-methyl-4-oxo-N-(3,4,5-trihydroxyphenyl)-1,4-dihydroquinoline-3-carboxamide] | 98 | (+++) ((+++) is greater than 60% inhibition) | > 90 | > 60 | 114 | > 60 |
| COc1cc(NC(=O)c2c(NC(=O)c3cc(OC)c(OC)c(OC)c3)sc3c2CCCC3)cc(OC)c1 [Compound 5, N-(3,5-dimethoxyphenyl)-2-(3,4,5-trimethoxybenzamido)-4,5,6,7-tetrahydrobenzo[b]thiophene-3-carboxamide] | 22 | (+) ((+) is between 10% to 30% inhibition) |  |  | -4 | -10 to 10 |
| COc1cc(NC(=O)c2c(-c3cc(OC)c(OC)c(OC)c3)[nH]c3cc(OC)c(OC)c(OC)c3c2=O)cc(OC)c1OC [Compound 40, 5,6,7-trimethoxy-4-oxo-N,2-bis(3,4,5-trimethoxyphenyl)-1,4-dihydroquinoline-3-carboxamide] | −12 | (−−) ((−−) is less than −10% inhibition) |  |  | 15 | 10 to 30 |
